According to patent US6140368A, “Naphthols useful in antiviral methods” (The Regents of the University of California, priority 1998, dated 2000):
pIC50: −log10 of the molar value.

molecular target: HIV reverse transcriptase (Human immunodeficiency virus type 1 group M subtype B, UniProt P03366); test: Reverse transcriptase scintillation proximity assay (Example 4, Table 2); assay type: biochemical; details: 10 μM inhibitor; relative to dimethyl sulfoxide = 100%; 3 min, 10 µM
Description: Reverse transcriptase ("RT") activity is measured using a scintillation proximity assay kit available from Amersham Life Sciences, Inc., which uses a biotin/streptavidin bead capture system. RNA-dependent polymerase activity is measured using purified […] and a synthetic 17mer/50mer RNA-DNA template-primer containing biotin at the 5' end of the DNA. The template-primer, buffer, dNTP, and inhibitor are incubated for 10 minutes at 37° C. before the RT is added. The final 100 μl reaction mixture contains: 39 nm of template primer, buffer (40 mM tris HCl at pH 8.0, 10 mM MgCl2, 60 mM KCl, 10 mM dithiothreitol); 75 nM of each dNTP except dTTP; 25 nM dTTP and 35 nM tritium labeled d*TTP; 10 μM inhibitor; and 1.0-2.0 μg of RT. After three minute incubation, the reaction is quenched with 40 μl of 0.56M EDTA. Then 10 μl of streptavidin SPA beads (in suspension) are added and incubated at 37° C. for 10 minutes. Finally, 850 μl of a buffer containing 10 mM Tris HCl pH 7.4 and 0.15M NaCl is added. The signal is produced by biotinylated polymers incorporating d*TTP binding to the streptavidin beads which stimulate the scintillant. The amount of d*TTP incorporated in the polymer is measured with a scintillation counter.
Compounds showing good inhibition will give a low number of counts/min (cpm). This number is related to a standard, dimethyl sulfoxide, which is given an arbitrary 100% relative activity. All cpm data in a single run are given a percent of this standard.

In the case of O=C(O)c1ccc(N=Nc2c(S(=O)(=O)O)cc3cc(NC(=O)c4ccc(C(=O)Nc5ccc6c(O)c(N=Nc7ccc(C(=O)O)cc7)c(S(=O)(=O)O)cc6c5)cc4)ccc3c2O)cc1 [Compound 169], the “% RT activity remaining at 10 μM” value was “.15%”.
With O=C(O)c1ccc(N=Nc2c(S(=O)(=O)O)cc3cc(NC(=O)c4cccc(C(=O)Nc5ccc6c(O)c(N=Nc7ccc(C(=O)O)cc7)c(S(=O)(=O)O)cc6c5)n4)ccc3c2O)cc1 [Compound 127] the “% RT activity remaining at 10 μM” value was “.14%”.

same assay, conditions: 0.05 h, 10 μM inhibitor; relative to dimethyl sulfoxide = 100%; read-out: % RT activity remaining at 10 μM

First: COc1cc(C(=O)O)ccc1N=Nc1c(S(=O)(=O)O)cc2cc(NC(=O)c3cc(=O)cc(C(=O)Nc4ccc5c(O)c(N=Nc6ccc(C(=O)O)cc6OC)c(S(=O)(=O)O)cc5c4)o3)ccc2c1O [Compound 139]
Second: O=C(O)c1ccc(N=Nc2c(S(=O)(=O)O)cc3cc(NC(=O)c4cc(=O)cc(C(=O)Nc5ccc6c(O)c(N=Nc7ccc(C(=O)O)cc7)c(S(=O)(=O)O)cc6c5)o4)ccc3c2O)cc1 [Compound 132]
The remaining activity at 10 µM of the first is higher: 0.34% for the first, 0.19% for the second.

Compared with O=C(O)CC(C(=O)O)c1ccc(N=Nc2c(S(=O)(=O)O)cc3cc(Nc4c(Nc5ccc6c(O)c(N=Nc7ccc(C(CC(=O)O)C(=O)O)cc7)c(S(=O)(=O)O)cc6c5)c(=O)c4=O)ccc3c2O)cc1 (stereo not shown) [Compound 191], O=C(O)CC(C(=O)O)c1ccc(N=Nc2c(S(=O)(=O)O)cc3cc(NC(=O)c4cccc(C(=O)Nc5ccc6c(O)c(N=Nc7ccc(C(CC(=O)O)C(=O)O)cc7)c(S(=O)(=O)O)cc6c5)n4)ccc3c2O)cc1 (stereo not shown) [Compound 124] is higher in remaining activity at 10 µM: 0.3% for the first, 1.2% for the second.

O=C(O)Cc1ccc(N=Nc2c(S(=O)(=O)O)cc3cc(Nc4c(Nc5ccc6c(O)c(N=Nc7ccc(CC(=O)O)cc7)c(S(=O)(=O)O)cc6c5)c(=O)c4=O)ccc3c2O)cc1 [Compound 187] and O=C(O)Cc1ccc(N=Nc2c(S(=O)(=O)O)cc3cc(NC(=O)c4cc(O)cc(C(=O)Nc5ccc6c(O)c(N=Nc7ccc(CC(=O)O)cc7)c(S(=O)(=O)O)cc6c5)n4)ccc3c2O)cc1 [Compound 147] are the same in remaining activity at 10 µM: 0.3% for the first, 0.3% for the second.

Going from O=c1c(Nc2ccc3cc(S(=O)(=O)O)cc(O)c3c2)c(Nc2ccc3cc(S(=O)(=O)O)cc(O)c3c2)c1=O [Compound 198] to O=C(Nc1ccc2cc(S(=O)(=O)O)cc(O)c2c1)Nc1ccc2cc(S(=O)(=O)O)cc(O)c2c1 [Compound 77], the remaining activity at 10 µM rises from 37% to 84%.

Compared with O=C(Nc1ccc2c(O)cc(S(=O)(=O)O)cc2c1)Nc1cccc2c1C(=O)c1ccccc1C2=O [Compound 20], O=C(Nc1ccc2c(O)cc(S(=O)(=O)O)cc2c1)Nc1cccc2ccccc12 [Compound 11] is higher in remaining activity at 10 µM: 86% for the first, 90% for the second.

Compared with Cc1cc(C(=O)O)ccc1N=Nc1c(S(=O)(=O)O)cc2cc(NC(=O)c3cccc(C(=O)Nc4ccc5c(O)c(N=Nc6ccc(C(=O)O)cc6C)c(S(=O)(=O)O)cc5c4)n3)ccc2c1O [Compound 130], Cc1cc(C(=O)O)ccc1N=Nc1c(S(=O)(=O)O)cc2cc(NC(=O)c3ccc(C(=O)Nc4ccc5c(O)c(N=Nc6ccc(C(=O)O)cc6C)c(S(=O)(=O)O)cc5c4)cc3)ccc2c1O [Compound 168] is higher in remaining activity at 10 µM: 0.35% for the first, 0.5% for the second.

Going from O=C(O)Cc1ccc(N=Nc2c(S(=O)(=O)O)cc3cc(NC(=O)c4ccc(C(=O)Nc5ccc6c(O)c(N=Nc7ccc(CC(=O)O)cc7)c(S(=O)(=O)O)cc6c5)cc4)ccc3c2O)cc1 [Compound 163] to O=C(O)Cc1ccc(N=Nc2c(S(=O)(=O)O)cc3cc(NC(=O)c4cccc(C(=O)Nc5ccc6c(O)c(N=Nc7ccc(CC(=O)O)cc7)c(S(=O)(=O)O)cc6c5)n4)ccc3c2O)cc1 [Compound 119], the remaining activity at 10 µM rises from 0.1% to 0.29%.

First: O=C(Nc1ccc2c(O)c(N=Nc3ccc(Cl)cc3)c(S(=O)(=O)O)cc2c1)c1ccc(C(=O)Nc2ccc3c(O)c(N=Nc4ccc(Cl)cc4)c(S(=O)(=O)O)cc3c2)cc1 [Compound 181]
Second: O=C(O)c1cccc(N=Nc2c(S(=O)(=O)O)cc3cc(NC(=O)c4ccc(C(=O)Nc5ccc6c(O)c(N=Nc7cccc(C(=O)O)c7)c(S(=O)(=O)O)cc6c5)cc4)ccc3c2O)c1 [Compound 170]
The remaining activity at 10 µM of the first is higher: 43% for the first, 0.1% for the second.

Compared with O=C(Nc1ccc2c(O)cc(S(=O)(=O)O)cc2c1)c1ccc(C(=O)Nc2ccc3c(O)cc(S(=O)(=O)O)cc3c2)cc1 [Compound 160], O=C(Nc1ccc2ccc(S(=O)(=O)O)cc2c1)Nc1ccc2ccc(S(=O)(=O)O)cc2c1 [Compound 80] is higher in remaining activity at 10 µM: 74% for the first, 84% for the second.

Compared with O=C(Nc1ccc2c(O)c(N=Nc3cc(F)c(F)c(C(=O)O)c3F)c(S(=O)(=O)O)cc2c1)c1ccc(C(=O)Nc2ccc3c(O)c(N=Nc4cc(F)c(F)c(C(=O)O)c4F)c(S(=O)(=O)O)cc3c2)cc1 [Compound 171], Cc1ccc(CO)cc1N=Nc1c(S(=O)(=O)O)cc2cc(NC(=O)c3ccc(C(=O)Nc4ccc5c(O)c(N=Nc6cc(CO)ccc6C)c(S(=O)(=O)O)cc5c4)cc3)ccc2c1O [Compound 180] is higher in remaining activity at 10 µM: 0.15% for the first, 45% for the second.

Compared with O=C(O)/C=C/c1ccc(N=Nc2c(S(=O)(=O)O)cc3cc(NC(=O)c4cc(=O)cc(C(=O)Nc5ccc6c(O)c(N=Nc7ccc(/C=C/C(=O)O)cc7)c(S(=O)(=O)O)cc6c5)o4)ccc3c2O)cc1 [Compound 137], O=C(O)/C=C/c1ccc(N=Nc2c(S(=O)(=O)O)cc3cc(NC(=O)c4cccc(C(=O)Nc5ccc6c(O)c(N=Nc7ccc(/C=C/C(=O)O)cc7)c(S(=O)(=O)O)cc6c5)n4)ccc3c2O)cc1 [Compound 123] is lower in remaining activity at 10 µM: 0.53% for the first, 0.2% for the second.

First: COc1cc(C(=O)O)c(N=Nc2c(S(=O)(=O)O)cc3cc(NC(=O)c4ccc(C(=O)Nc5ccc6c(O)c(N=Nc7c(C(=O)O)cc(OC)c(OC)c7OC)c(S(=O)(=O)O)cc6c5)cc4)ccc3c2O)c(OC)c1OC [Compound 177]
Second: O=C(O)c1cccc(N=Nc2c(S(=O)(=O)O)cc3cc(NC(=O)c4cc(O)cc(C(=O)Nc5ccc6c(O)c(N=Nc7cccc(C(=O)O)c7)c(S(=O)(=O)O)cc6c5)n4)ccc3c2O)c1 [Compound 150]
The remaining activity at 10 µM of the first is lower: 0.17% for the first, 0.6% for the second.

First: O=C(Nc1ccc2ccccc2c1)Nc1ccc2c(O)cc(S(=O)(=O)O)cc2c1 [Compound 13]
Second: O=C(Nc1cnc2ccccc2c1)Nc1ccc2c(O)cc(S(=O)(=O)O)cc2c1 [Compound 14]
The remaining activity at 10 µM of the first is lower: 82% for the first, 90% for the second.

Going from O=C(O)/C=C/c1ccc(N=Nc2c(S(=O)(=O)O)cc3ccc(Nc4c(Nc5ccc6cc(S(=O)(=O)O)c(N=Nc7ccc(/C=C/C(=O)O)cc7)c(O)c6c5)c(=O)c4=O)cc3c2O)cc1 [Compound 199] to O=C(O)c1cccc(N=Nc2c(S(=O)(=O)O)cc3cc(Nc4c(Nc5ccc6c(O)c(N=Nc7cccc(C(=O)O)c7)c(S(=O)(=O)O)cc6c5)c(=O)c4=O)ccc3c2O)c1 [Compound 190], the remaining activity at 10 µM falls from 1.2% to 0.5%.

Compared with O=C1c2ccccc2C(=O)N1c1ccc2c(O)cc(S(=O)(=O)O)cc2c1 [Compound 23], O=C(Nc1ccc2cc(S(=O)(=O)O)cc(S(=O)(=O)O)c2c1)Nc1ccc2cc(S(=O)(=O)O)cc(S(=O)(=O)O)c2c1 [Compound 78] is lower in remaining activity at 10 µM: 100% for the first, 80% for the second.

same assay, conditions: read-out: IC50 (RT activity)

Compared with O=c1c(Nc2ccc3c(O)cc(S(=O)(=O)O)cc3c2)c(Nc2ccc3c(O)cc(S(=O)(=O)O)cc3c2)c1=O [Compound 184], O=C(O)c1c(F)c(F)c(N=Nc2c(S(=O)(=O)O)cc3cc(Nc4c(Nc5ccc6c(O)c(N=Nc7c(F)c(F)c(C(=O)O)c(F)c7F)c(S(=O)(=O)O)cc6c5)c(=O)c4=O)ccc3c2O)c(F)c1F [Compound 194] is 0.36 log units higher in pIC50: 6.00 for the first, 6.36 for the second. The second is the more potent here.
